Results from US9321764B2, “Dihydro-pyrrolopyridinone inhibitors” (AbbVie Inc., priority 2013, dated 2016).

Key:
BRD4 (BDII_E352-M457) = molecular target: T1, BRD4 (BDII_E352-M457) (Homo sapiens, UniProt O60885); experiment: TR-FRET bromodomain binding assay, second bromodomain of BRD4; settings: His-tagged BD2, 30 nM Alexa647 probe; TR-FRET protocol A-E given per row
T1 construct: proliferation; Protocol; made in house
Outline: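 His-tagged BRD4 BD2 ([…]) competed against an Alexa647-labelled BET-inhibitor probe in TR-FRET. Buffer was 20 mM sodium phosphate pH 6.0, 50 mM NaCl, 1 mM EDTA, 0.01% Triton X-100, 1 mM DTT, with method D DMSO series of 2.5 mM–800 nM (stock range). IC50 from 4-parameter fit, Ki from probe Kd and concentration.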

BRD4 (BDI_K57-E168) = molecular target: T2, BRD4 (BDI_K57-E168) (Homo sapiens, UniProt O60885); experiment: TR-FRET bromodomain binding assay, first bromodomain of BRD4; settings: His-tagged BD1, 100 nM Alexa647 probe; TR-FRET protocol A-E given per row
T2 construct: BD1: amino acids K57-E168; made in house
Outline: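 His-tagged BRD4 BD1 (K57-E168), 8 nM, with 1 nM Eu-anti-His antibody and 100 nM Alexa647-labelled BET-inhibitor probe in pH 6.0 phosphate buffer, 2% DMSO. TR-FRET read after 1 h at room temperature. IC50 from 4-parameter fit, converted to Ki using probe Kd and concentration.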

[1] = tested on: breast cancer cell line MX-1; experiment: MX-1 cell line proliferation assay; format: cell-based; settings: Homo sapiens, MX1, 72 h, MX-1 cells, 3-day proliferation assay, Cell Titer Glo; read-out: Cellular proliferation EC50
Method: The impact of compounds of the Examples on cancer cell proliferation was determined using the breast cancer cell line MX-1 (ATCC) in a 3-day proliferation assay and the data are reported in Table 1. MX-1 cells were maintained in RPMI 1640 medium (Sigma) supplemented with 10% FBS at 37° C. and an atmosphere of 5% CO2. For compound testing, MX-1 cells were plated in 96-well black bottom plates at a density of 5000 cells/well in 90 μL of culture media and incubated at 37° overnight to allow cell adhesion and spreading. Compound dilution series were prepared in DMSO via a 3-fold serial dilution from 3 mM to 0.1 μM. The DMSO dilution series were then diluted 1:100 in phosphate buffered saline, and 10 μL of the resulted solution were added to the appropriate wells of the MX-1 cell plate. The final compound concentrations in the wells were 3, 1, 0.3, 0.1, 0.03, 0.01, 0.003, 0.001, 0.0003 and 0.0001 μM.
Luminescence readings from the Cell Titer Glo assay were normalized to the DMSO treated cells and analyzed using the GraphPad Prism software with sigmoidal curve fitting to obtain EC50s. The minimum significant ratio (MSR) was determined to evaluate assay reproducibility (Eastwood et al., (2006) J Biomol Screen, 11: 253-261).

| SMILES | Ki (BRD4 (BDII_E352-M457)) [nM] | Ki (BRD4 (BDI_K57-E168)) [nM] | EC50 [1] [nM] |
| --- | --- | --- | --- |
| Cn1cc(-c2cc(S(C)(=O)=O)ccc2NCC2CCCC2)c2cc[nH]c(=O)c21 [Example 68, 3-{2-[(cyclopentylmethyl)amino]-5-(methylsulfonyl)phenyl}-1-methyl-1,6-dihydro-7H-pyrrolo[2,3-c]pyridin-7-one] | 124 | 103 | 38 |
| Cn1cc(-c2cc(S(C)(=O)=O)ccc2NCC2CC2)c2cc[nH]c(=O)c21 [Example 44, 3-{2-[(cyclopropylmethyl)amino]-5-(methylsulfonyl)phenyl}-1-methyl-1,6-dihydro-7H-pyrrolo[2,3-c]pyridin-7-one] | 89 | 14 | 136 |
| Cn1cc(-c2cc(S(=O)(=O)N3CCc4ccccc43)ccc2OCC2CC2)c2cc[nH]c(=O)c21 [Example 97, 3-[2-(cyclopropylmethoxy)-5-(2,3-dihydro-1H-indol-1-ylsulfonyl)phenyl]-1-methyl-1,6-dihydro-7H-pyrrolo[2,3-c]pyridin-7-one] | 81 | 158 | 398 |
| Cn1cc(-c2cc(CNS(=O)(=O)CC(F)(F)F)ccc2Oc2ccc(F)cc2F)c2cc[nH]c(=O)c21 [Example 135, N-[4-(2,4-difluorophenoxy)-3-(1-methyl-7-oxo-6,7-dihydro-1H-pyrrolo[2,3-c]pyridin-3-yl)benzyl]-2,2,2-trifluoroethanesulfonamide] | 109 | 27 | 388 |
| Cn1cc(-c2cc(CN3CCNCC3)ccc2Oc2ccc(F)cc2F)c2cc[nH]c(=O)c21 [Example 105, 3-[2-(2,4-difluorophenoxy)-5-(piperazin-1-ylmethyl)phenyl]-1-methyl-1,6-dihydro-7H-pyrrolo[2,3-c]pyridin-7-one] | 329 | 528 | 806 |
| CCc1cc(Oc2ccc(S(=O)(=O)CC)cc2-c2cn(C)c3c(=O)[nH]ccc23)ccc1Cl [Example 79, 3-[2-(4-chloro-3-ethylphenoxy)-5-(ethylsulfonyl)phenyl]-1-methyl-1,6-dihydro-7H-pyrrolo[2,3-c]pyridin-7-one] | 84 | 150 |  |
| Cn1cc(-c2cc(NC(=O)Cn3cc(-c4ccccc4F)cn3)ccc2Oc2ccc(F)cc2F)c2cc[nH]c(=O)c21 [Example 165, N-[4-(2,4-difluorophenoxy)-3-(1-methyl-7-oxo-6,7-dihydro-1H-pyrrolo[2,3-c]pyridin-3-yl)phenyl]-2-[4-(2-fluorophenyl)-1H-pyrazol-1-yl]acetamide] | 105 | 214 |  |
| Cn1cc(-c2cc(NC(=O)C3CCN(c4ccccc4)C3=O)ccc2Oc2ccc(F)cc2F)c2cc[nH]c(=O)c21 (stereo not drawn) [Example 157, N-[4-(2,4-difluorophenoxy)-3-(1-methyl-7-oxo-6,7-dihydro-1H-pyrrolo[2,3-c]pyridin-3-yl)phenyl]-2-oxo-1-phenylpyrrolidine-3-carboxamide] | 333 | 118 |  |
| Cn1cc(-c2cc(S(C)(=O)=O)ccc2Oc2ccc(C(C)(C)C)cc2)c2cc[nH]c(=O)c21 [Example 62, 3-[2-(4-tert-butylphenoxy)-5-(methylsulfonyl)phenyl]-1-methyl-1,6-dihydro-7H-pyrrolo[2,3-c]pyridin-7-one] | 291 | 357 |  |
| Cn1cc(-c2cc(S(C)(=O)=O)ccc2OCCC2CCCCC2)c2cc[nH]c(=O)c21 [Example 36, 3-[2-(2-cyclohexylethoxy)-5-(methylsulfonyl)phenyl]-1-methyl-1,6-dihydro-7H-pyrrolo[2,3-c]pyridin-7-one] | 515 | 146 |  |
| Cn1cc(-c2cc(CN)ccc2Oc2ccc(F)cc2F)c2cc[nH]c(=O)c21 [Example 136, 3-[5-(aminomethyl)-2-(2,4-difluorophenoxy)phenyl]-1-methyl-1,6-dihydro-7H-pyrrolo[2,3-c]pyridin-7-one] | 1320 | 1090 |  |
| Cn1cc(-c2cc(CNC3CCNCC3)ccc2Oc2ccc(F)cc2F)c2cc[nH]c(=O)c21 [Example 112, 3-{2-(2,4-difluorophenoxy)-5-[(piperidin-4-ylamino)methyl]phenyl}-1-methyl-1,6-dihydro-7H-pyrrolo[2,3-c]pyridin-7-one] | 1050 | 1050 |  |
| CCS(=O)(=O)c1ccc(Oc2cnc(C)cc2C)c(-c2cn(C)c3c(=O)[nH]ccc23)c1 [Example 75, 3-{2[(4,6-dimethylpyridin-3-yl)oxy]-5-(ethylsulfonyl)phenyl}-1-methyl-1,6-dihydro-7H-pyrrolo[2,3-c]pyridin-7-one] | 42 | 131 |  |

The remaining compounds from weak to strong by Ki (BRD4 (BDII_E352-M457)), led by results:

| Ki (BRD4 (BDII_E352-M457)) [nM] | Ki (BRD4 (BDI_K57-E168)) [nM] | EC50 [1] [nM] | SMILES |
| --- | --- | --- | --- |
| 1870 | 168 |  | Cc1noc(C)c1-c1cc2c(-c3cc(CS(C)(=O)=O)ccc3Oc3ccc(F)cc3F)cn(C)c2c(=O)[nH]1 [Example 94, 3-{2-(2,4-difluorophenoxy)-5-[(methylsulfonyl)methyl]phenyl}-5-(3,5-dimethyl-1,2-oxazol-4-yl)-1-methyl-1,6-dihydro-7H-pyrrolo[2,3-c]pyridin-7-one] |
| 1200 | 1410 | > 3000 | Cn1cc(-c2cc(CNCCC(C)(C)C)ccc2Oc2ccc(F)cc2F)c2cc[nH]c(=O)c21 [Example 114, 3-[2-(2,4-difluorophenoxy)-5-{[(3,3-dimethylbutyl)amino]methyl}phenyl]-1-methyl-1,6-dihydro-7H-pyrrolo[2,3-c]pyridin-7-one] |
| 525 | 129 | > 3000 | Cc1oncc1S(=O)(=O)NCc1ccc(Oc2ccc(F)cc2F)c(-c2cn(C)c3c(=O)[nH]ccc23)c1 [Example 139, N-[4-(2,4-difluorophenoxy)-3-(1-methyl-7-oxo-6,7-dihydro-1H-pyrrolo[2,3-c]pyridin-3-yl)benzyl]-5-methyl-1,2-oxazole-4-sulfonamide] |
| 313 | 85 | 584 | Cn1cc(-c2ccccc2Oc2ccccc2)c2cc[nH]c(=O)c21 [Example 1, 1-methyl-3-(2-phenoxyphenyl)-1,6-dihydro-7H-pyrrolo[2,3-c]pyridin-7-one] |
| 183 | 146 |  | Cn1cc(-c2cc(NC(=O)Cc3ccc4c(c3)CCCO4)ccc2Oc2ccc(F)cc2F)c2cc[nH]c(=O)c21 [Example 162, N-[4-(2,4-difluorophenoxy)-3-(1-methyl-7-oxo-6,7-dihydro-1H-pyrrolo[2,3-c]pyridin-3-yl)phenyl]-2-(3,4-dihydro-2H-chromen-6-yl)acetamide] |
| 59.3 | 34.9 | > 1000 | Cn1cc(-c2cc(NS(=O)(=O)Cc3ccccc3)ccc2Oc2ccc(F)cc2F)c2cc[nH]c(=O)c21 [Example 180, N-[4-(2,4-difluorophenoxy)-3-(1-methyl-7-oxo-6,7-dihydro-1H-pyrrolo[2,3-c]pyridin-3-yl)phenyl]-1-phenylmethanesulfonamide] |
| 57 | 36 | 84 | Cn1cc(-c2cc(S(C)(=O)=O)ccc2OCC(F)(F)C(F)(F)F)c2cc[nH]c(=O)c21 [Example 64, 1-methyl-3-[5-(methylsulfonyl)-2-(2,2,3,3,3-pentafluoropropoxy)phenyl]-1,6-dihydro-7H-pyrrolo[2,3-c]pyridin-7-one] |
| 54 | 41.6 |  | COc1ccccc1CC(=O)Nc1ccc(Oc2ccc(F)cc2F)c(-c2cn(C)c3c(=O)[nH]ccc23)c1 [Example 149, N-[4-(2,4-difluorophenoxy)-3-(1-methyl-7-oxo-6,7-dihydro-1H-pyrrolo[2,3-c]pyridin-3-yl)phenyl]-2-(2-methoxyphenyl)acetamide] |
| 49 | 66 |  | CCS(=O)(=O)c1ccc(Oc2ccc(Cl)cc2Cl)c(-c2cn(C)c3c(=O)[nH]ccc23)c1 [Example 82, 3-[2-(2,4-dichlorophenoxy)-5-(ethylsulfonyl)phenyl]-1-methyl-1,6-dihydro-7H-pyrrolo[2,3-c]pyridin-7-one] |
| 29 | 12 | 128 | CCS(=O)(=O)Nc1ccc(O[C@H]2CC[C@@H](OC)CC2)c(-c2cn(C)c3c(=O)[nH]ccc23)c1 [Example 9, N-{4-[(cis-4-methoxycyclohexyl)oxy]-3-(1-methyl-7-oxo-6,7-dihydro-1H-pyrrolo[2,3-c]pyridin-3-yl)phenyl}ethanesulfonamide] |
